According to US20100105098A1, “Methods of Identifying Disease Biomarkers in the Lense of the Eye” (priority 2006, published 2010):

Assays:
cultured lens = conditions: bolus of 250 μM H2O2, incubated for 24 hrs
Protocol: FIG. 26: Cultured lens exposed to a bolus of 250 μM H2O2 incubated for 24 hrs.
Optimizing sensitivity for Raman. […] In previous in vitro studies Laser probes at 514 nm (82), and 647 nm (34) wavelengths were used for detection and characterization of Aβ-metal complex signature intensities in situ in lenses.

[1] = in vitro, cited from earlier work

OO [H2O2, hydrogen peroxide]
light scattering indicative of lens opacification (cultured lens): increases over time

Aβ1-40: human β-amyloid peptide, 1-40 amino acid form derived from APP
H2O2 produced relative to Aβ1-42 peptides ([1]; human peptides): ~50%

rat Aβ1-40: rat β-amyloid peptide 1-40, lacking two key metal chelating amino acids (DAEFGHDSGFEVRHQKLVFFAEDVGSNKGAIIGLMVGGVV; Amyloid-beta protein 40; UniProt P08592 672-711, looked up, fragment)
H2O2 produced relative to human Aβ1-40 ([1]; rat peptides): ~20%
